Measured values taken from patent US6365631B1, “Method of treating sleep apnoea” (Knoll Pharmaceutical Company, priority 1999, dated 2002).

Assays:
[1] = test system: patients suffering from clinically relevant obesity, many with serious sleep apnoea problems; test: clinical study, computer supported arousal/apnoea recognition in subset of 36 of 150 obese patients; assay type: in vivo, human; conditions: Sibutramine 20 mg daily; week-12 vs week-1 (pre-treatment); subset of 36 patients
Protocol: The beneficial effects of the compounds of the present invention at doses of 15 mg and 20 mg daily may also be confirmed in a double-blind, randomised, placebo-controlled clinical trial using questionnaires or by recording Holter ecgs with a Rozin/GeTeMed tape recorder device for 24 to 36 hours pre and post treatment period, using IEC-I type tapes. The ecg data may be computer-processed to study arousals.
In a clinical study with 150 patients suffering from clinically relevant obesity, many of them with serious sleep apnoea problems, a subset of 36 patients was arbitrarily selected for computer supported arousal/apnoea recognition. Two consecutive nights were recorded at week-1 (pre-treatment) and week-12 of treatment, and the number of arousals per hour of sleep time was evaluated. […] Compared to placebo this is significant at a 5%-level (p=0.0227).

[2] = test system: patients suffering from clinically relevant obesity (BMI>30) and sleep apnoea; test: open explorative study with 5 volunteer patients with obesity and sleep apnoea
Protocol: Study design: An open explorative study with 5 volunteer patients suffering from clinically relevant obesity (BMI>30) and sleep apnoea was performed. […] No other control treatment was applied.
Methods: Patients willing to lose weight who had obtained prescriptions for Reductil® (Knoll) from their doctor were asked to take part in this voluntary observational study. All patients were willing to change dietary habits during treatment, and to perform at least moderate physical training (twice a week at least half an hour). Patients were interviewed pre and post treatment, and their partners asked for their observations on snoring behaviour. The patients were asked for their own rating of severity of daytime sleepiness, and their partners for objective observations about frequency and heaviness of snoring as well as for their observations about apnoea signs.

[3] = 5 patients, 10 or 15 mg daily, 6 to 14 weeks

CC(C)CC(N(C)C)C1(c2ccc(Cl)cc2)CCC1 (stereo not drawn) [sibutramine, N,N-dimethyl-1-[1-(4-chlorophenyl)cyclobutyl]-3-methylbutylamine]
reduction of number of arousals per hour of sleep time [1]: clinically significant effect
mean weight loss under treatment [2, 3]: 14 kg
weight loss, span over patients [2, 3]: −7% to −22%
mean weight loss under treatment (percent) ([2]; 5 patients, 10 or 15 mg/kg daily, 6 to 14 weeks): 14.6%
Mean BMI at end of treatment ([2]; 5 patients, sibutramine 10 or 15 mg daily, 6 to 14 weeks, 34 before treatment): 29
arousal index Al, mean after treatment ([2]; mean 23,5 before treatment): 10,0
patients with clearly reduced daytime sleepiness ([2]; of 5 patients, after treatment): 4 out of 5
patients reporting improved ease of breathing with closed mouth ([2]; of 5 patients, under treatment): 3 out of 5
decrease of arousal index, span over patients ([2]; pre vs post treatment): −25% to −67%
mean decrease of arousal index ([2]; pre vs post treatment): −57%
daytime sleepiness scale after treatment, patient-reported ([2]; scale 0-3, 2,0 before treatment): 0,6
snoring scale mean after treatment, observed by sleep companions ([2]; scale 0-3, mean score 2,2 before treatment): 1
